Measured values: patent US11702404B2, “GLP-1R modulating compounds” (priority 2019, dated 2023)

What was measured:
[1] = target: GLP-1R (Homo sapiens, UniProt P43220); assay: GLP-1R activation: cAMP increase in CHO cells stably expressing GLP-1R; assay type: cell-based; details: cAMP increase, CHO cells stably expressing GLP-1R, 10 point dose response, 30 minutes incubation; read-out: EC50
[2] = Microsomal stability, human liver microsomes (predicted hepatic clearance); details: predicted from in vitro microsomal stability data

GLP-1R, sequence (P43220 24-463): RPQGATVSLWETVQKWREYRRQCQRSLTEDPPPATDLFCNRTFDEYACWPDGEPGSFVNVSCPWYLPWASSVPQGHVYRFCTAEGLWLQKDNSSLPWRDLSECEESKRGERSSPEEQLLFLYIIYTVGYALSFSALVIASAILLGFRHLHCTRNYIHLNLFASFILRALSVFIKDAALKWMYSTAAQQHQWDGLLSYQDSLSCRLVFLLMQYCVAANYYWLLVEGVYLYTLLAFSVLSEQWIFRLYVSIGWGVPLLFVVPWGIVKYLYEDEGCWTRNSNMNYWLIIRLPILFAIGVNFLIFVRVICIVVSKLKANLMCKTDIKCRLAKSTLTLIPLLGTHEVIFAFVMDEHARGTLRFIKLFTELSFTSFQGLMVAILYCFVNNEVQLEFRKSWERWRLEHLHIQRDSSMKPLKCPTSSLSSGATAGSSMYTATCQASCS

SMILES | EC50 [1] [nM] | Predicted Hepatic Clearance (Pred. Cl.) [2] [mL/min/kg]
COCCn1c(Cc2ccc(-c3cccc(OCc4ccc(C(F)(F)F)cc4OC)n3)cc2F)nc2ccc(C(=O)O)cc21 [Example 459, 2-(2-fluoro-4-(6-((2-methoxy-4-(trifluoromethyl)benzyl)oxy)pyridin-2-yl)benzyl)-1-(2-methoxyethyl)-1H-benzo[d]imidazole-6-carboxylic acid] | 2.35 | <1.83
COCCn1c(Cc2cc(F)c(-c3cccc(OCc4cc(F)c(Cl)cc4F)n3)cc2F)nc2ccc(C(=O)O)cc21 [Example 564, 2-(4-(6-((4-chloro-2,5-difluorobenzyl)oxy)pyridin-2-yl)-2,5-difluorobenzyl)-1-(2-methoxyethyl)-1H-benzo[d]imidazole-6-carboxylic acid] | 1.96 | 3.42
CC(C#N)Cn1c(Cc2cc(F)c(-c3cccc(OCc4ccc(C#N)cc4F)n3)cc2F)nc2ccc(C(=O)O)cc21 (racemic) [Example 306, 2-(4-(6-((4-cyano-2-fluorobenzyl)oxy)pyridin-2-yl)-2,5-difluorobenzyl)-1-(2-cyanopropyl)-1H-benzo[d]imidazole-6-carboxylic acid] | 1.86 | 6
N#Cc1ccc(COc2cccc(-c3ccc(Cc4nc5ncc(C(=O)O)cc5n4CC4(CF)CC4)c(F)c3)n2)c(F)c1 [Example 94, 2-(4-(6-((4-cyano-2-fluorobenzyl)oxy)pyridin-2-yl)-2-fluorobenzyl)-1-((1-(fluoromethyl)cyclopropyl)methyl)-1H-imidazo[4,5-b]pyridine-6-carboxylic acid] | 0.66 | <1.83
CN1C[C@@](C)(Cn2c(Cc3cc(F)c(-c4cccc(OCc5ccc(C#N)cc5F)n4)cc3F)nc3ccc(C(=O)O)cc32)C1=O (racemic) [Example 272, 2-(4-(6-((4-cyano-2-fluorobenzyl)oxy)pyridin-2-yl)-2,5-difluorobenzyl)-1-((1,3-dimethyl-2-oxoazetidin-3-yl)methyl)-1H-benzo[d]imidazole-6-carboxylic acid] | 1.66 | 9.67
CCn1cncc1Cn1c(Cc2ccc(-c3cccc(OCc4ccc(C#N)cc4F)c3)cc2F)nc2ccc(C(=O)O)cc21 [Example 527, 2-((3′-((4-cyano-2-fluorobenzyl)oxy)-3-fluoro-[1,1′-biphenyl]-4-yl)methyl)-1-((1-ethyl-1H-imidazol-5-yl)methyl)-1H-benzo[d]imidazole-6-carboxylic acid] | 1.84 | 3.67
COCCn1c(Cc2ccc(-c3cccc(OCc4cccc5ccoc45)n3)cc2F)nc2ccc(C(=O)O)cc21 [Example 136, 2-(4-(6-(benzofuran-7-ylmethoxy)pyridin-2-yl)-2-fluorobenzyl)-1-(2-methoxyethyl)-1H-benzo[d]imidazole-6-carboxylic acid] | 24.5 | 9
N#CCC1(Cn2c(Cc3ccc(-c4cccc(OCc5ccc(C#N)cc5F)n4)c(F)c3)nc3c(F)cc(C(=O)O)cc32)CC1 [Example 287, 2-(4-(6-((4-cyano-2-fluorobenzyl)oxy)pyridin-2-yl)-3-fluorobenzyl)-1-((1-(cyanomethyl)cyclopropyl)methyl)-4-fluoro-1H-benzo[d]imidazole-6-carboxylic acid] | 0.14 | 10.5
COCCn1c(Cc2cc(F)c(-c3cccc(OCc4cccc5c4COC5)n3)cc2F)nc2ccc(C(=O)O)cc21 [Example 873] | 83.8 | 12.2
COCC1(Cn2c(Cc3cc(F)c(-c4cccc(OCc5ccc(C#N)cc5F)n4)cc3F)nc3ccc(C(=O)O)cc32)CC1 [Example 638] | 2.24 | 1.83
CCn1cnnc1Cn1c(Cc2cc(F)c(-c3cccc(OCc4ccc(C(F)F)cc4F)n3)cc2F)nc2ccc(C(=O)O)cc21 [Example 678] | 0.88 | 4.17
